Consider 15 molecules from PubChem BioAssay AID248 (DTP/NCI, 2004).

In the assay the test system is L1210 leukemia ip in BDF1 mice, survival T/C. As to the kind of experiment: NCI In Vivo Anticancer Drug Screen. Data for tumor model L1210 Leukemia (intraperitoneal) in B6D2F1 (BDF1) mice. Particulars: endpoint: mean survival time, higher = longer survival. Put shortly: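 Value reflects the ratio of survival in compound-treated mice to survival in vehicle-treated controls, with both groups carrying the same transplanted tumor.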

Setting [1] is: dose: 100.0 mg/kg/injection, schedule: Q04DX002 (ip), vehicle: Klucel (hydroxypropylcellulose) (HPC).
Where [2] appears, read: dose: 200.0 mg/kg/injection, schedule: Q04DX002 (ip), vehicle: Klucel (hydroxypropylcellulose) (HPC).
Setting [3] is: dose: 400.0 mg/kg/injection, schedule: Q04DX002 (ip), vehicle: Klucel (hydroxypropylcellulose) (HPC).
Setting [4] is: dose: 100.0 mg/kg/injection, schedule: Q01DX001 (ip), vehicle: saline.
Setting [5] is: dose: 100.0 mg/kg/injection, schedule: Q01DX009 (ip), vehicle: saline with Tween-80.
The mark [6] stands for this setting: dose: 200.0 mg/kg/injection, schedule: Q01DX009 (ip), vehicle: saline with Tween-80.
Where [7] appears, read: dose: 200.0 mg/kg/injection, schedule: Q04DX003 (ip), vehicle: saline with Tween-80.
Setting [8] is: dose: 400.0 mg/kg/injection, schedule: Q01DX009 (ip), vehicle: saline with Tween-80.
[9] abbreviates: dose: 100.0 mg/kg/injection, schedule: Q04DX003 (ip), vehicle: Klucel (hydroxypropylcellulose) (HPC).

“And” between values parts separate entries of the source, which are not always exact repeats. Equal values may be shown once. Inconclusive results and toxic doses are left out.

Regarding `CCN(CC)c1ccc(S(=O)(=O)NC(=O)OC)cc1`, the T/C by setting is: under setting [1], 98 % of control; under setting [2], 112 % of control; under setting [3], 112 % of control.

With `COC(=O)CC[N+]12CN3CN(CN(C3)C1)C2`, the T/C under setting [4] is 91 % of control; the T/C (dose: 100.0 mg/kg/injection, schedule: Q04DX003 (ip), vehicle: saline) is 106 % of control; the T/C (dose: 200.0 mg/kg/injection, schedule: Q01DX001 (ip), vehicle: saline) is 100 % of control; the T/C (dose: 200.0 mg/kg/injection, schedule: Q04DX003 (ip), vehicle: saline) was 106 % of control; the T/C (dose: 400.0 mg/kg/injection, schedule: Q01DX001 (ip), vehicle: saline) was 96 % of control; the T/C (dose: 400.0 mg/kg/injection, schedule: Q04DX003 (ip), vehicle: saline) is 105 % of control.

Regarding `COc1ccc(C(=O)Nc2c(C)cccc2C)cc1`, the T/C (dose: 100.0 mg/kg/injection, schedule: Q01DX009 (ip), vehicle: carboxymethylcellulose (CMC)) was 94 % of control and 90 % of control; the T/C under setting [1] was 112 % of control; the T/C (dose: 100.0 mg/kg/injection, schedule: Q04DX002 (ip), vehicle: carboxymethylcellulose (CMC)) is 97 % of control and 108 % of control; the T/C (dose: 100.0 mg/kg/injection, schedule: Q04DX003 (ip), vehicle: carboxymethylcellulose (CMC)) is 104 % of control; the T/C (dose: 200.0 mg/kg/injection, schedule: Q01DX009 (ip), vehicle: carboxymethylcellulose (CMC)) is 94 % of control and 92 % of control; the T/C under setting [2] was 108 % of control. The T/C reads like this: (dose: 200.0 mg/kg/injection, schedule: Q04DX002 (ip), vehicle: carboxymethylcellulose (CMC)) 100 % of control and 101 % of control; (dose: 200.0 mg/kg/injection, schedule: Q04DX003 (ip), vehicle: carboxymethylcellulose (CMC)) 106 % of control; (dose: 400.0 mg/kg/injection, schedule: Q01DX009 (ip), vehicle: carboxymethylcellulose (CMC)) 94 % of control and 97 % of control; under setting [3], 108 % of control; (dose: 400.0 mg/kg/injection, schedule: Q04DX002 (ip), vehicle: carboxymethylcellulose (CMC)) 103 % of control; (dose: 400.0 mg/kg/injection, schedule: Q04DX003 (ip), vehicle: carboxymethylcellulose (CMC)) 106 % of control.

Consider `Cc1cc(CSc2ssc(=S)c2-c2ccccc2)c(CSc2ssc(=S)c2-c2ccccc2)cc1C`, for which the T/C was 94 % of control under setting [5]; 112 % of control (dose: 100.0 mg/kg/injection, schedule: Q04DX003 (ip), vehicle: saline with Tween-80); 92 % of control under setting [6]; 106 % of control under setting [7]; 96 % of control under setting [8]; 95 % of control (dose: 400.0 mg/kg/injection, schedule: Q04DX003 (ip), vehicle: saline with Tween-80).

`O=S(=O)(Nc1ccccc1)c1ccccc1C=C(c1ccccc1)c1ccccc1`: the T/C was 105 % of control (dose: 100.0 mg/kg/injection, schedule: Q01DX001 (ip), vehicle: steriod suspending solution); 86 % of control (dose: 200.0 mg/kg/injection, schedule: Q01DX001 (ip), vehicle: steriod suspending solution); 97 % of control (dose: 400.0 mg/kg/injection, schedule: Q01DX001 (ip), vehicle: steriod suspending solution).

For `COc1cc2ccc(CCN)cc2cc1OC`, the T/C is, setting by setting: (dose: 12.5 mg/kg/injection, schedule: Q01DX009 (ip), vehicle: saline with Tween-80) 101 % of control; (dose: 25.0 mg/kg/injection, schedule: Q01DX009 (ip), vehicle: saline with Tween-80) 101 % of control; (dose: 50.0 mg/kg/injection, schedule: Q01DX009 (ip), vehicle: saline with Tween-80) 105 % of control.

Take `CCCCCCCCCCCCCCCC[N+](C)(C)CCCCCCCCCCCCCCCC`: the T/C was 103 % of control (dose: 3.12 mg/kg/injection, schedule: Q03DX003 (ip), vehicle: saline with Tween-80); 100 % of control (dose: 6.25 mg/kg/injection, schedule: Q03DX003 (ip), vehicle: saline with Tween-80); 103 % of control (dose: 12.5 mg/kg/injection, schedule: Q03DX003 (ip), vehicle: saline with Tween-80); 93 % of control (dose: 12.5 mg/kg/injection, schedule: Q04DX003 (ip), vehicle: saline with Tween-80).

For `O=C(Nc1ccccc1F)c1ccccc1`, the T/C was 97 % of control (dose: 100.0 mg/kg/injection, schedule: Q01DX009 (ip), vehicle: Klucel (hydroxypropylcellulose) (HPC)); 96 % of control under setting [9]; 87 % of control (dose: 200.0 mg/kg/injection, schedule: Q01DX009 (ip), vehicle: Klucel (hydroxypropylcellulose) (HPC)); 98 % of control (dose: 200.0 mg/kg/injection, schedule: Q04DX003 (ip), vehicle: Klucel (hydroxypropylcellulose) (HPC)); 89 % of control (dose: 400.0 mg/kg/injection, schedule: Q01DX009 (ip), vehicle: Klucel (hydroxypropylcellulose) (HPC)); 104 % of control (dose: 400.0 mg/kg/injection, schedule: Q04DX003 (ip), vehicle: Klucel (hydroxypropylcellulose) (HPC)).

Consider `CCCCOCN(C(=O)CCl)c1c(CC)cccc1CC`, for which the T/C is, setting by setting: under setting [5], 101 % of control; under setting [6], 110 % of control; under setting [8], 89 % of control.

As for `c1ccc2c(c1)CCc1ccccc1CN(CCNC1=NCCN1)C2`, the T/C was 96 % of control (dose: 6.25 mg/kg/injection, schedule: Q01DX009 (ip), vehicle: Klucel (hydroxypropylcellulose) (HPC)); 91 % of control (dose: 12.5 mg/kg/injection, schedule: Q01DX009 (ip), vehicle: Klucel (hydroxypropylcellulose) (HPC)); 91 % of control (dose: 25.0 mg/kg/injection, schedule: Q01DX009 (ip), vehicle: Klucel (hydroxypropylcellulose) (HPC)).

As for `COC1C(O)C(CO)OC1n1cnc2c(=S)nc[nH]c21` (stereo unspecified), the T/C is, setting by setting: (dose: 50.0 mg/kg/injection, schedule: Q01DX001 (ip), vehicle: carboxymethylcellulose (CMC)) 102 % of control; (dose: 88.8 mg/kg/injection, schedule: Q01DX001 (ip), vehicle: carboxymethylcellulose (CMC)) 102 % of control and 112 % of control; (dose: 100.0 mg/kg/injection, schedule: Q01DX001 (ip), vehicle: carboxymethylcellulose (CMC)) 102 % of control; (dose: 133.0 mg/kg/injection, schedule: Q01DX001 (ip), vehicle: carboxymethylcellulose (CMC)) 110 % of control and 116 % of control; (dose: 200.0 mg/kg/injection, schedule: Q01DX001 (ip), vehicle: carboxymethylcellulose (CMC)) 110 % of control and 116 % of control; (dose: 300.0 mg/kg/injection, schedule: Q01DX001 (ip), vehicle: carboxymethylcellulose (CMC)) 102 % of control and 116 % of control. In addition, the T/C (dose: 400.0 mg/kg/injection, schedule: Q01DX001 (ip), vehicle: carboxymethylcellulose (CMC)) was 102 % of control.

Take `CCCC#CCOCC(O)CCl` (stereo unspecified): the T/C (dose: 100.0 mg/kg/injection, schedule: Q01DX009 (ip), vehicle: saline sonified) was 105 % of control; the T/C (dose: 100.0 mg/kg/injection, schedule: Q04DX003 (ip), vehicle: saline sonified) is 91 % of control; the T/C (dose: 200.0 mg/kg/injection, schedule: Q01DX009 (ip), vehicle: saline sonified) was 101 % of control; the T/C (dose: 200.0 mg/kg/injection, schedule: Q04DX003 (ip), vehicle: saline sonified) was 94 % of control; the T/C (dose: 400.0 mg/kg/injection, schedule: Q01DX009 (ip), vehicle: saline sonified) is 105 % of control; the T/C (dose: 400.0 mg/kg/injection, schedule: Q04DX003 (ip), vehicle: saline sonified) was 94 % of control.

As for `[O-][n+]1onc2ncccc21`, the T/C was 108 % of control (dose: 25.0 mg/kg/injection, schedule: Q04DX003 (ip), vehicle: Klucel (hydroxypropylcellulose) (HPC)); 94 % of control (dose: 50.0 mg/kg/injection, schedule: Q04DX003 (ip), vehicle: Klucel (hydroxypropylcellulose) (HPC)); 100 % of control and 102 % of control under setting [9].

As to `CCC(C)(C(=O)O)C(=O)O`, the T/C under setting [4] was 103 % of control.

Regarding `CC(=O)OCCn1c2ccccc2c2c(C)c3cnccc3c(C)c21`, the T/C is 115 % of control (dose: 37.5 mg/kg/injection, schedule: Q04DX003 (ip), vehicle: saline); 154 % of control (dose: 150.0 mg/kg/injection, schedule: Q04DX003 (ip), vehicle: saline); 108 % of control under setting [7]; 102 % of control (dose: 300.0 mg/kg/injection, schedule: Q04DX003 (ip), vehicle: saline with Tween-80); 290 % of control (dose: 300.0 mg/kg/injection, schedule: Q04DX003 (ip), vehicle: saline).
